Laboratory results published in patent US20130296228A1, “EFFLUX PUMP INHIBITORS” (priority 2010, published 2013).
“And” between values parts separate entries of the source, which are not always exact repeats. Equal values may be shown once. Read-outs that look alike come from different tables or passages of the source. Residues, ends and D or L forms follow the SMILES beside them.

Assays:
P. aeruginosa 23587 = assay: Diameter of zone of inhibition of antimicrobial agents with or without efflux pump inhibitor; format: cell-based; conditions: for inhibition of MDR RND efflux pumps, concluded from potentiation: clinical isolates of P. aeruginosa; for change of activity in the presence of PAN: clinical isolates P. aeruginosa 23587 and P. aeruginosa 2301
Source text: Since RND efflux pumps operate by utilizing energy in […], metabolic inhibitor, sodium azide brings about MDR RND pump inhibition by causing energy deprivation.

P. aeruginosa 2301 [1] = assay: as above; format: cell-based; conditions: for Diameter of zone of inhibition: P. aeruginosa 2301
P. aeruginosa 2301 [2] = assay: Survival of high density inoculation in MHA medium; format: cell-based; conditions: high density inoculation 2-5 × 10^9 CFU/ml; 20 mcg/ml in MHA medium
Source text: In a most surprising manner, the combination of ceftazidime and azithromycin and tigecycline respectively brought about more than 7 log reduction in the bacterial count as compared to individual effects in highly resistant Pseudomonas strain. Moreover in a very unusual and surprising manner this tremendous bactericidal effect is taking place at concentrations much below than their individual inhibitory concentrations. […] It is also likely that ceftazidime interacts with outer membrane porins and acts as a porin modulator. Bacalum et al. have shown that ceftazidime binds to outer membrane porins with high affinity (Bacalum et al. Romanian. J. Biophys., 19, 105-116, 2009).

[3] = system: MDR clinical isolate of P. aeruginosa 2301; assay: Systemic infection in mice, % survival; format: in vivo; conditions: Table 7, mice, Oral
[4] = Table 1, P. aeruginosa 23587, +PAN (20 μg/ml), 12.5 μg/well
[5] = Table 1, +PAN (20 μg/ml), 12.5 μg/well
[6] = Table 2, P. aeruginosa (23587), +sodium azide (10 μg/ml), 50 μg/well
[7] = Table 2, P. aeruginosa (23587), +sodium azide (10 μg/ml), 100 μg/well
[8] = Table 2, P. aeruginosa (23587), +sodium azide (10 μg/ml), 200 μg/well

CO/N=C(\C(=O)N[C@@H]1C(=O)N2C(C(=O)[O-])=C(C[N+]3(C)CCCC3)CS[C@H]12)c1csc(N)n1 [Cefepime, cefepime]
inhibition of MDR RND efflux pumps, concluded from potentiation (P. aeruginosa 23587): inhibit RND pumps

colistin
Diameter of zone of inhibition (P. aeruginosa 23587): 12.5 m.m. and 14 m.m. and 16.5 m.m. and 11.5 m.m. and 16 m.m.
Diameter of zone of inhibition (P. aeruginosa 23587; [4]): 16.5 m.m.
Diameter of zone of inhibition (P. aeruginosa 23587; Table 2, P. aeruginosa (23587), +Reserpine (25 μg/ml), 12.5 μg/well): 16 m.m.
Diameter of zone of inhibition (P. aeruginosa 23587; Table 2, P. aeruginosa (23587), +sodium azide (10 μg/ml), 12.5 μg/well): 16 m.m.
Diameter of zone of inhibition (P. aeruginosa 23587; Table 3, P. aeruginosa 23587, +Cefepime (1 μg/ml), 12.5 μg/Well): 16 m.m.
Diameter of zone of inhibition (P. aeruginosa 23587; Table 3, P. aeruginosa 23587, +Ceftazidime (1 μg/ml), 12.5 μg/Well): 16 m.m.
change of activity in the presence of PAN (P. aeruginosa 23587): no change
Diameter of zone of inhibition (P. aeruginosa 2301 [1]; [5]): 16 m.m.
Diameter of zone of inhibition (P. aeruginosa 2301 [1]; Table 6, +Cefepime (2 μg/ml), 12.5 μg/Well): 16 m.m.
Diameter of zone of inhibition (P. aeruginosa 2301 [1]; Table 6, +Ceftazidime (0.5 μg/ml), 12.5 μg/Well): 16 m.m.

CC[C@H]1OC(=O)[C@H](C)[C@@H](O[C@H]2C[C@@](C)(OC)[C@@H](O)[C@H](C)O2)[C@H](C)[C@@H](O[C@@H]2O[C@H](C)C[C@H](N(C)C)[C@H]2O)[C@](C)(O)C[C@@H](C)CN(C)[C@H](C)[C@@H](O)[C@]1(C)O [Azithromycin, azithromycin]
change of activity in presence of reserpine (P. aeruginosa 23587): no change
change of activity on addition of sodium azide (P. aeruginosa 23587): potentiated
change of activity in the presence of cefepime and ceftazidime (P. aeruginosa 23587; Example 3): significant potentiation
Diameter of zone of inhibition (P. aeruginosa 23587; [4]): 16 m.m.
Diameter of zone of inhibition (P. aeruginosa 23587; Table 1, P. aeruginosa 23587, +PAN (20 μg/ml), 25 μg/well): 23.5 m.m.
Diameter of zone of inhibition (P. aeruginosa 23587; Table 1, P. aeruginosa 23587, +PAN (20 μg/ml), 50 μg/well): 27 m.m.
Diameter of zone of inhibition (P. aeruginosa 23587; Table 1, P. aeruginosa 23587, Control, 25 μg/well): 19H
Diameter of zone of inhibition (P. aeruginosa 23587; Table 1, P. aeruginosa 23587, Control, 50 μg/well): 23H
Diameter of zone of inhibition (P. aeruginosa 23587; Table 2, P. aeruginosa (23587), +Reserpine (25 μg/ml), 50 μg/well): 12H
Diameter of zone of inhibition (P. aeruginosa 23587; Table 2, P. aeruginosa (23587), +Reserpine (25 μg/ml), 100 μg/well): 20H
Diameter of zone of inhibition (P. aeruginosa 23587; Table 2, P. aeruginosa (23587), +Reserpine (25 μg/ml), 200 μg/well): 24H
Diameter of zone of inhibition (P. aeruginosa 23587; [6]): 21H
Diameter of zone of inhibition (P. aeruginosa 23587; [7]): 24H
Diameter of zone of inhibition (P. aeruginosa 23587; [8]): 30 m.m.
Diameter of zone of inhibition (P. aeruginosa 23587; Table 2, P. aeruginosa (23587), Control, 50 μg/well): 12H
Diameter of zone of inhibition (P. aeruginosa 23587; Table 2, P. aeruginosa (23587), Control, 100 μg/well): 20H
Diameter of zone of inhibition (P. aeruginosa 23587; Table 2, P. aeruginosa (23587), Control, 200 μg/well): 24H
Diameter of zone of inhibition (P. aeruginosa 23587; Table 3, P. aeruginosa 23587, +Cefepime (1 μg/ml), 100 μg/Well): 28H
Diameter of zone of inhibition (P. aeruginosa 23587; Table 3, P. aeruginosa 23587, +Cefepime (1 μg/ml), 200 μg/Well): 30H
Diameter of zone of inhibition (P. aeruginosa 23587; Table 3, P. aeruginosa 23587, +Ceftazidime (1 μg/ml), 100 μg/Well): 36 m.m.
Diameter of zone of inhibition (P. aeruginosa 23587; Table 3, P. aeruginosa 23587, +Ceftazidime (1 μg/ml), 200 μg/Well): 42 m.m.
Diameter of zone of inhibition (P. aeruginosa 23587; Table 3, P. aeruginosa 23587, Control, 100 μg/Well): 20H
Diameter of zone of inhibition (P. aeruginosa 23587; Table 3, P. aeruginosa 23587, Control, 200 μg/Well): 24H
change of activity in the presence of PAN (P. aeruginosa 23587): Synergistic enhancement
change of activity in the presence of cefepime and ceftazidime (P. aeruginosa 2301 [1]; Example 6): significant potentiation
Diameter of zone of inhibition (P. aeruginosa 2301 [1]; [5]): 25 m.m.
Diameter of zone of inhibition (P. aeruginosa 2301 [1]; Table 1, +PAN (20 μg/ml), 25 μg/well): 28 m.m.
Diameter of zone of inhibition (P. aeruginosa 2301 [1]; Table 1, +PAN (20 μg/ml), 50 μg/well): 32 m.m.
Diameter of zone of inhibition (P. aeruginosa 2301 [1]; Table 1, Control, 25 μg/well): SLI
Diameter of zone of inhibition (P. aeruginosa 2301 [1]; Table 1, Control, 50 μg/well): 13.5H
Diameter of zone of inhibition (P. aeruginosa 2301 [1]; Table 6, +Cefepime (2 μg/ml), 50 μg/Well): 24H
Diameter of zone of inhibition (P. aeruginosa 2301 [1]; Table 6, +Cefepime (2 μg/ml), 100 μg/Well): 28H
Diameter of zone of inhibition (P. aeruginosa 2301 [1]; Table 6, +Cefepime (2 μg/ml), 200 μg/Well): 30H
Diameter of zone of inhibition (P. aeruginosa 2301 [1]; Table 6, +Ceftazidime (0.5 μg/ml), 50 μg/Well): 32H
Diameter of zone of inhibition (P. aeruginosa 2301 [1]; Table 6, +Ceftazidime (0.5 μg/ml), 100 μg/Well): 36H
Diameter of zone of inhibition (P. aeruginosa 2301 [1]; Table 6, +Ceftazidime (0.5 μg/ml), 200 μg/Well): 42H
Diameter of zone of inhibition (P. aeruginosa 2301 [1]; Table 6, Control, 50 μg/Well): 12H
Diameter of zone of inhibition (P. aeruginosa 2301 [1]; Table 6, Control, 100 μg/Well): 20H
Diameter of zone of inhibition (P. aeruginosa 2301 [1]; Table 6, Control, 200 μg/Well): 24H
CFU/ml at 48 h (P. aeruginosa 2301 [2]): >5 × 10^9 CFU/ml

CC(=O)NC[C@H]1CN(c2ccc(N3CCOCC3)c(F)c2)C(=O)O1 [linezolid]
change of activity in the presence of PAN (P. aeruginosa 23587): Synergistic enhancement

CC[n+]1c(-c2ccccc2)c2cc(N)ccc2c2ccc(N)cc21 [Ethidium Bromide, ethidium bromide]
Diameter of zone of inhibition (P. aeruginosa 23587; [6]): 10H
Diameter of zone of inhibition (P. aeruginosa 23587; [7]): 13H
Diameter of zone of inhibition (P. aeruginosa 23587; [8]): 16H

CN(C)c1cc(NC(=O)CNC(C)(C)C)c(O)c2c1C[C@H]1C[C@H]3[C@H](N(C)C)C(O)=C(C(N)=O)C(=O)[C@@]3(O)C(O)=C1C2=O [Tigecycline, tigecycline]
CFU/ml at 48 h (P. aeruginosa 2301 [2]): >5 × 10^9 CFU/ml

CS(=O)(=O)O.C[C@H](N)C(=O)OC1CCN(c2c(F)cc3c(=O)c(C(=O)O)cn4c3c2CC[C@@H]4C)CC1 [2′S,5S-(−)-9-Fluoro-8-(4-alaninyloxy-piperidin-1-yl)-5-methyl-6,7-dihydro-1-oxo-1H,5H-benzo[i,j]quinolizine-2-carboxylic acid methane sulfonic acid salt]
% survival ([3]; 50 mg/kg BID × 1 day): 0%
% survival ([3]; 75 mg/kg BID × 1 day): 16.6%
% survival ([3]; 100 mg/kg BID × 1 day): 16.6%

NC(N)=NCCCC(NC(=O)[C@@H](N)Cc1ccccc1)C(=O)Nc1ccc2ccccc2c1 (stereo partly drawn) [PAN, Phe-Arg-beta-naphthylamide] (HELM PEPTIDE1{F.[N=C(N)NCCCC(N[*:1])C(=O)[*:2]].[c1ccc2cc(N[*:1])ccc2c1]}$$$$V2.0)
inhibition of MDR RND efflux pumps, concluded from potentiation (P. aeruginosa 23587): efflux inhibition

COC(=O)[C@H]1[C@H]2C[C@@H]3c4[nH]c5cc(OC)ccc5c4CCN3C[C@H]2C[C@@H](OC(=O)c2cc(OC)c(OC)c(OC)c2)[C@@H]1OC [reserpine]
inhibition of MDR RND efflux pumps, concluded from potentiation (P. aeruginosa 23587): non inhibition
